The record followed here is US20100209513A1, “PHARMACEUTICAL COMPOSITION CONTAINING MICRONIZED PARTICLES OF NAPHTHOQUINONE-BASED COMPOUND” (priority 2007, published 2010).

Series [1] is described as follows: Particle size before and after micronization, HELOS measurement (Example 15). The format is physicochemical. The note with it: for Particle size X50 after micronization / Particle size X90 after micronization: after micronization by Jet mill or ball mill without surfactant. As for the experimental part: (§1) The dissolution test was carried out according to the paddle method of Korean Phramacopeia. The paddle rate was 75 rpm, the temperature of an effluent was 37° C., and a test solution was a mixture solution of pH 6.8, 1.5% Tween 80. First, the test solution was filtered through a […] Membrane filter and centrifuged. Supernatant fluid was taken, and the content of drug was analyzed by HPLC, and the amount of released drug was measured at different time points. The drugs used for the dissolution test are Compounds 1, 5, 44 and 51 provided in Table 1, and the extract set forth in the Korean Patent No. 10-818586 which contains Compound 58 over 60 wt % (‘Compound 58 Extract’). Microparticulation was carried out using Jet mill or ball mill without any surfactant. The particle size of compounds was determined by HELOS measurement.
Measurement of the particle size was carried out by putting approximately 3 ml of a sample into a cell for particle size measurement and measuring the particle size during 60 seconds per sample. The particle sizes before and after micronization are provided below.

A short description of series [2]: Dissolution test, paddle method (Example 15). The conditions noted are these: for Increasing rate of dissolution rate of 12 hours: after versus before microparticulation; for Change of dissolution rate of micronized particles compared to before micronization: different time points, FIGS. 3 to 6, pH 6.8, 1.5% Tween 80, 37° C.; for Dissolution rate of 12 hours after microparticulation / Dissolution rate of 12 hours before microparticulation: paddle 75 rpm, 37° C., pH 6.8, 1.5% Tween 80; for Dissolution rate of 12 hours after microparticulation: after microparticulation (Jet mill or ball mill, no surfactant). The format is physicochemical. As for the experimental part:
Dissolution test was commonly carried out under the following condition.
as §1

Series [3] in a line: Body weight change in ob/ob mice given suspensions of cryptotanshinone powder or micronized particles (Example 6). The format is in vivo. The note with it: ob/ob male mice; 400 mg/kg PO once a day. As for the experimental part: 1 g of a simply finely-divided powder of cryptotanshinone, and 1 g of each micronized particles of cryptotanshinone compound according to the procedures of Examples 1 to 3 were mixed with 10 mL of distilled water, and the resulting mixtures were processed in a sonicator for 30 min to prepare suspensions of the cryptotanshinone compounds. 400 mg/kg of these suspensions in terms of cryptotanshinone content was administered to ob/ob mice once a day and changes in the body weight (BW) of animals were examined.
For this purpose, 10-week-old ob/ob male mice (Jackson Lab) as an obese mouse model of type 2 diabetes were purchased from Orient Co., Ltd., Korea and were allowed to acclimate to a new environment of the breeding room for 10 days prior to experiments. Animals were fed a solid feed (P5053, Labdiet) as a laboratory animal chow. The ob/ob male mice were housed and allowed to acclimate to a new environment for 10 days, in a breeding room maintained at a temperature of 22±2° C., humidity of 55±5%, and a 12-h light/dark (L/D) cycle (light from 8:00 a.m. to 8:00 p.m.). […]

Series [4] can be described thus: Body weight change in DIO (diet-induced obesity) SD rats with varying dosages of micronized cryptotanshinone (Example 7). The format is in vivo. The note with it: for BW loss / Final BW: high-fat diet, Jet mill-micronized with 0.2% SLS. The method, then: Each of formulations composed of a mixture of Jet mill-micronized cryptotanshinone at 25 mg/kg, 50 mg/kg and 100 mg/kg with 0.2% (w/w) sodium lauryl sulfate was administered daily for 28 days to DIO (diet-induced obesity) SD rats in which obesity was caused by high-fat diet for 4 weeks. As a control, a surfactant SLS at a concentration of 0.2% was suspended in distilled water and a suspension was then administered to animals.

The nature of series [5]: Particle size of micronized particles prepared in Examples 1 to 5. The format is physicochemical. The conditions noted are these: cryptotanshinone prior to supercritical micronization. The method, then:
In order to develop a supercritical micronization process, 5 g of cryptotanshinone having a particle size distribution of 1 to 100 μm and an average particle size of 30 μm, and 0.5 g of sodium lauryl sulfate were dissolved in 45 mL of methylene chloride. Thereafter, the resulting solution of cryptotanshinone in methylene chloride was injected at a flow rate of 1 to 2 mL/min via a nozzle orifice with a diameter of 1/16 inch into a reaction vessel which was set to a temperature of 30° C., 80 bar, and 2,000 rpm and was filled with liquefied carbon dioxide, whereas carbon dioxide was injected at a flow rate of 10 to 20 mL/min via a nozzle orifice with a diameter of 1/16 inch using an ISCO pump.
In order to recover precipitates of small-sized particles from the liquid carbon dioxide solution as an insoluble solvent in the reaction vessel, a volume of carbon dioxide which is 15-fold that of the reaction vessel was flowed to remove the remaining organic solvent and the pressure of the reaction vessel was reduced to recover micronized particles of cryptotanshinone. […]
Micronizing of cryptotanshinone was carried out using a Jet mill (SJ-100, Nisshin, Japan). […] Micronized particles were recovered and a particle size was determined in terms of particle diameter by […]. […]

As to `CC1(C)CCC2=C(O1)c1ccccc1C(=O)C2=O` [Compound 1, 7,8-dihydro-2,2-dimethyl-2H-naphtho(2,3-b)dihydropyran-7,8-dione], in series [1], the “Particle size X50 after micronization” value is given as “X50 = 2.39 μm”, the “Particle size X90 after micronization” value is reported as “X90 = 5.03 μm”, the “Particle size X50 before micronization” value is given as “X50 = 27.83 μm” and the “Particle size X90 before micronization” value is “X90 = 33.74 μm”. In series [2], the “Increasing rate of dissolution rate of 12 hours” value was found to be 42%, the “Change of dissolution rate of micronized particles compared to before micronization” value (shortened to “Change”) is recorded as “increased significantly”, the “Dissolution rate of 12 hours after microparticulation” value was 95.52% and the “Dissolution rate of 12 hours before microparticulation” value is 67.19%.

For the molecule `CC1CC2=C(O1)c1ccccc1C(=O)C2=O` (stereo not drawn) [Compound 5], in series [1], the “Particle size X50 after micronization” value is “X50 = 2.48 μm”, the “Particle size X90 after micronization” value is “X90 = 5.38 μm”, the “Particle size X50 before micronization” value is on record as “X50 = 3.61 μm” and the “Particle size X90 before micronization” value is “X90 = 20.09 μm”. In addition, in series [2], the “Increasing rate of dissolution rate of 12 hours” value came to 10%, the “Change” value was “increased significantly”, the “Dissolution rate of 12 hours after microparticulation” value came to 86.12% and the “Dissolution rate of 12 hours before microparticulation” value stood at 78.12%.

In the case of `CC1OC2=C(C(=O)C(=O)c3c2ccc2c3CCCC2)C1(C)C` (stereo not drawn) [Compound 44], in series [1], the “Particle size X50 after micronization” value is “X50 = 2.41 μm”, the “Particle size X90 after micronization” value was “X90 = 24.57 μm”, the “Particle size X50 before micronization” value is recorded as “X50 = 3.15 μm” and the “Particle size X90 before micronization” value is reported as “X90 = 22.41 μm”. In addition, in series [2], the “Change” value is “increased significantly”, the “Dissolution rate of 12 hours after microparticulation” value stood at 41.05% and the “Dissolution rate of 12 hours before microparticulation” value amounted to 13.81%.

With `Cc1cc2c(c3ccccc13)C(=O)C(=O)C1=C2OC(C)C1(C)C` (stereo not drawn) [Compound 51], in series [1], the “Particle size X50 after micronization” value is reported as “X50 = 3.05 μm”, the “Particle size X90 after micronization” value is given as “X90 = 13.48 μm”, the “Particle size X50 before micronization” value is “X50 = 5.08 μm” and the “Particle size X90 before micronization” value is listed as “X90 = 21.97 μm”. For the same molecule, in series [2], the “Change” value is recorded as “increased significantly”, the “Dissolution rate of 12 hours after microparticulation” value amounted to 51.3% and the “Dissolution rate of 12 hours before microparticulation” value amounted to 24.08%.

Consider `C[C@H]1COC2=C1C(=O)C(=O)c1c2ccc2c1CCCC2(C)C` [Simply finely-divided cryptotanshinone, cryptotanshinone], for which the “Final BW” value in series [3] is 57.5 ± 1.3 g.

Consider cryptotanshinone [Compound 58], for which the “Loss of body weight compared to the control group” value in series [4] (25, 50 and 100 mg/kg daily for 28 days, concentration-dependent) is “significant loss of body weight”. The BW loss in series [4] (25 mg/kg daily for 28 days) was 16.9 ± 3.8%; in series [4] (50 mg/kg daily for 28 days), 15.4 ± 3.7%; in series [4] (100 mg/kg daily for 28 days), 6.2 ± 5.5%. Moreover, the “Final BW” value amounted to 589.0 ± 50.4 g in series [4] (25 mg/kg daily for 28 days), 578.8 ± 54.6 g in series [4] (50 mg/kg daily for 28 days) and 529.8 ± 59.1 g in series [4] (100 mg/kg daily for 28 days). In series [5], this molecule gave an Average particle size of 30 μm.
